Assay results as given in patent publication US20240158394A1, “NEK7 INHIBITORS” (Halia Therapeutics, Inc., priority 2022, published 2024).

How the values were obtained:
[1] = target: full-length recombinant human NEK7 (Homo sapiens (Human), UniProt Q8TDX7); experiment: NEK7 Enzymatic Assay; assay type: biochemical; conditions: casein substrate, [33P]-ATP, 2 hours at room temperature
How it was run: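 GST-tagged full-length human NEK7 (Sf9-expressed) with 1 mg/mL casein in HEPES pH 7.5/MgCl2 buffer, 1% DMSO; compounds 10 μM–0.5 nM preincubated 20 min at RT. Reaction started with [^33P]-ATP, 2 h at RT, P81 filter radioactivity read; IC50 from % activity remaining versus vehicle.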

IL-1β release = experiment: IL-1β Release Assay; assay type: cell-based; conditions: Homo sapiens; PMA-treated THP-1 cells, 250 ng/mL LPS then 20 μM nigericin; cleaved IL-1β in media
Experimental: Approximately 1.5 million THP-1 cells were plated in each well of a 6-well TC plate and incubated with 40 nM PMA in RPMI (10% FBS, 1% Penstrep) for 24 hours. The media was then removed, and cells were rested in RPMI (10% FBS, 1% Penstrep) for 24 hours after which time the media was removed and cells were pre-treated for 2 hours with various concentrations of compounds of interest (typically serial 3-fold dilution in RPMI+5% FBS, concentrations ranging from 1 μM to 0.5 nM) in RPMI (5% FBS). The media was again removed, and cells were incubated with 250 ng/mL LPS and compounds of interest (concentrations as above) in RMPI (5% FBS) for 2 hours. The media was removed for a last time and cells were incubated with 20 μM nigericin and compounds of interest (concentrations as above) in Opti-MEM for 30 minutes. Cell media was then collected and the amount of cleaved IL-1β was determined using a JESS instrument (Protein Simple) and standard protocols. Cleaved Il-1β antibody was obtained from Cell Signaling (catalogue #83186S) and was used at 1:20 dilution in antibody diluent 2. Protein Simple 1× anti-Rabbit HRP secondary antibody was used along with Protein Simple luminol and peroxide for chemiluminescent detection. Primary antibody incubation time was increased from 30 minutes to 60 minutes.

Sequence of full-length recombinant human NEK7 (Q8TDX7 whole entry): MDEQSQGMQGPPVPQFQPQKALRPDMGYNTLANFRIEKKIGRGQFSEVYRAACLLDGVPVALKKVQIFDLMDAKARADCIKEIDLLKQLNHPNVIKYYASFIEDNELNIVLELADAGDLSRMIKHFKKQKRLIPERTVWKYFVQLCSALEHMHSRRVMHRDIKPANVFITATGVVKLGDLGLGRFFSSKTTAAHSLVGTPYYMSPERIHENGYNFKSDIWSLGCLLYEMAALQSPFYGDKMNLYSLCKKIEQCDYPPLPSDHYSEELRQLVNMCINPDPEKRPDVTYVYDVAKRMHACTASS

Row | IC50 [1] [nM] | IC50 (IL-1β release) [nM] | Structure (SMILES)
1 | 500 to 2000 | > 1000 | Nc1ncnc2c1c(-c1ccc(NC(=O)Nc3cc(C4(C(F)(F)F)CC4)on3)c3occc13)cn2C1CC1 [Example I-65, 1-(4-(4-amino-7-cyclopropyl-7H-pyrrolo[2,3-d]pyrimidin-5-yl)benzofuran-7-yl)-3-(5-(1-(trifluoromethyl)cyclopropyl)-isoxazol-3-yl)urea]
2 | > 2000 | > 1000 | CN1CCN(Cc2ccc(NC(=O)Nc3ncc(-c4cn(C5CC5)c5ncnc(N)c45)n4ccnc34)cc2C(F)(F)F)CC1 [Example I-51, 1-(5-(4-amino-7-cyclopropyl-7H-pyrrolo[2,3-d]pyrimidin-5-yl)imidazo[1,2-a]pyrazin-8-yl)-3-(4-((4-methylpiperazin-1-yl)methyl)-3-(trifluorometh-yl)phenyl)urea]
3 | < 200 | < 100 | CN1CCC(Oc2ccc(NC(=O)Nc3ccc(-c4cn(C5CC5)c5ncnc(N)c45)n4ccnc34)cc2C(F)(F)F)CC1 [Example I-37, 1-(5-(4-amino-7-cyclopropyl-7H-pyrrolo[2,3-d]pyrimidin-5-yl)imidazo[1,2-a]pyridin-8-yl)-3-(4-((1-methylpiperidin-4-yl)oxy)-3-(trifluorometh-yl)phenyl)urea]
4 | < 200 | < 100 | CC(C)(C)c1cc(NC(=O)Nc2ccc(-c3cn(C4CC4)c4ncnc(N)c34)c3nonc23)on1 [Example I-74, 1-(7-(4-amino-7-cyclopropyl-7H-pyrrolo[2,3-d]pyrimidin-5-yl)benzo[c][1,2,5]oxadiazol-4-yl)-3-(3-(tert-butyl)isoxazol-5-yl)urea]
5 | > 2000 | < 100 | CN1CCN(Cc2ccc(NC(=O)Nc3ccc(-c4cn(C5CC5)c5ncnc(N)c45)n4cc(C(F)(F)F)nc34)cc2C(F)(F)F)CC1 [Example I-47, 1-(5-(4-amino-7-cyclopropyl-7H-pyrrolo[2,3-d]pyrimidin-5-yl)-2-(trifluoromethyl)-imidazo[1,2-a]pyridin-8-yl)-3-(4-((4-methylpiperazin-1-yl)-methyl)-3-(trifluoromethyl)-phenyl)urea]
6 | < 200 | < 100 | Nc1ncnc2c1c(-c1ccc(NC(=O)Nc3cc(C4(C(F)(F)F)CC4)on3)c3nonc13)cn2C1CC1 [Example I-77, 1-(7-(4-amino-7-cyclopropyl-7H-pyrrolo[2,3-d]pyrimidin-5-yl)benzo[c][1,2,5]oxadiazol-4-yl)-3-(5-(1-(trifluoromethyl)-cyclopropyl)isoxazol-3-yl)urea]
7 | < 200 | < 100 | CN1CCN(Cc2ccc(NC(=O)Nc3ccc(-c4nn(C5CC5)c5ncnc(N)c45)n4ccnc34)cc2C(F)(F)F)CC1 [Example I-98, 1-(5-(4-amino-1-cyclopropyl-1H-pyrazolo[3,4-d]pyrimidin-3-yl)imidazo[1,2-a]pyridin-8-yl)-3-(4-((4-methylpiperazin-1-yl)methyl)-3-(trifluorometh-yl)phenyl)urea]
8 | 200 to 500 | < 100 | CN1CCN(Cc2ccc(NC(=O)Nc3ccc(-c4cn(C5CC5)c5ncnc(N)c45)c4ccoc34)cc2C(F)(F)F)CC1 [Example I-66, 1-(4-(4-amino-7-cyclopropyl-7H-pyrrolo[2,3-d]pyrimidin-5-yl)benzofuran-7-yl)-3-(4-((4-methylpiperazin-1-yl)-methyl)-3-(trifluoromethyl)-phenyl)urea]
9 | 500 to 2000 | < 100 | CC(C)(C)c1cc(NC(=O)Nc2ccc(-c3cn(C4CC4)c4ncnc(N)c34)c3ccoc23)n(-c2ccccc2)n1 [Example I-62, 1-(4-(4-amino-7-cyclopropyl-7H-pyrrolo[2,3-d]pyrimidin-5-yl)benzofuran-7-yl)-3-(3-(tert-butyl)-1-phenyl-1H-pyrazol-5-yl)urea]
